Laboratory results published in patent US8871753B2, “Macrocyclic compounds and their use as kinase inhibitors” (Incyte Corporation, priority 2008, dated 2014).

Columns and labels:
Format in all cases: biochemical
[1] = target: T1, human JAK1 (a.a. 837-1142) (Homo sapiens, UniProt P23458); experiment: In vitro JAK kinase assay (HTRF, phosphorylation of a biotinylated peptide), JAK1; settings: method AA1 (90 μM ATP) or AA2 (1000 μM ATP), not stated per value; read-out: JAK1 IC50
T1 construct: human JAK1 (a.a. 837-1142); His tag (N); made in house; host or cells: insect cells (baculovirus)
Procedure, shortened: (§1)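 Phosphorylation of a biotinylated peptide by the JAK kinase domain, detected by HTRF with Eu-Py20 and SA-APC. ATP was 90 μM for JAK1, 30 μM for JAK2 and 3 μM for JAK3. Reactions ran 1 h at room temperature and were stopped with EDTA, followed by 40 min antibody binding.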

[2] = target: T2, human JAK2 (a.a. 828-1132) (Homo sapiens, UniProt O60674); experiment: In vitro JAK kinase assay (HTRF, phosphorylation of a biotinylated peptide), JAK2; settings: method AA1 (30 μM ATP) or AA2 (1000 μM ATP), not stated per value
T2 construct: JAK2 (a.a. 828-1132); His tag (N); made in house; host or cells: insect cells (baculovirus)
Procedure, shortened: as §1

[3] = target: T3, human JAK3 (a.a. 781-1124) (Homo sapiens, UniProt P52333); experiment: In vitro JAK kinase assay (HTRF, phosphorylation of a biotinylated peptide), JAK3; settings: method AA1 (3 μM ATP) or AA2 (1000 μM ATP), not stated per value
T3 construct: JAK3 (a.a. 781-1124); His tag (N); made in house; host or cells: insect cells (baculovirus)
Procedure, shortened: as §1

TYK2 = TYK2 (Homo sapiens, UniProt P29597); experiment: TYK2 kinase inhibition (Table A1)
[4] = target: T4, Recombinant Human Anaplastic Lymphoma Kinase (Homo sapiens, UniProt Q9UM73); experiment: ALK HTRF kinase assay; settings: compound at 500 nM or 1 mM, 90 μM ATP
T4 construct: purchased Invitrogen, Carlsbad, Calif
Procedure, shortened: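 Kinase activity of the recombinant human protein is measured on a biotinylated peptide, with a Eu-W1024 anti-phosphotyrosine antibody and streptavidin-allophycocyanin generating the homogeneous time-resolved fluorescence signal. Inhibition curves are fitted to yield IC50.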

T3 sequence (P52333 781-1124): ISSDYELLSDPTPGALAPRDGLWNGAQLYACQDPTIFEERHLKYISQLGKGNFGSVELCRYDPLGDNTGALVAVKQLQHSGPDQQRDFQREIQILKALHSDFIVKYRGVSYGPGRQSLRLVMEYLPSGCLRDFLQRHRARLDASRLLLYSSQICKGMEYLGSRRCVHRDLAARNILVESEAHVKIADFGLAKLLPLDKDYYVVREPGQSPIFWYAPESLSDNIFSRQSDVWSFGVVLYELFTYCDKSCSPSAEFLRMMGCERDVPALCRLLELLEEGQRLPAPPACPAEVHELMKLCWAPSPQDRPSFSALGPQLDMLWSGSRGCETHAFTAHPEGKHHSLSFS
T1 sequence (P23458 849-1154): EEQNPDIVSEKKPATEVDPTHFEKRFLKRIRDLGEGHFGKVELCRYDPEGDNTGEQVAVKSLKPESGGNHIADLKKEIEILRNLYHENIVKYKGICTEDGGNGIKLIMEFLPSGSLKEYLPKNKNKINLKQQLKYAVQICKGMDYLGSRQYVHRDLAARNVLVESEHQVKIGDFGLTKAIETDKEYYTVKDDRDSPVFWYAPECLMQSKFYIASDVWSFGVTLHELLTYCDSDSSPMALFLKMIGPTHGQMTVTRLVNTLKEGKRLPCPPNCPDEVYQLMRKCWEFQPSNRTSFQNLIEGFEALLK
Chain of TYK2 (P29597 whole entry): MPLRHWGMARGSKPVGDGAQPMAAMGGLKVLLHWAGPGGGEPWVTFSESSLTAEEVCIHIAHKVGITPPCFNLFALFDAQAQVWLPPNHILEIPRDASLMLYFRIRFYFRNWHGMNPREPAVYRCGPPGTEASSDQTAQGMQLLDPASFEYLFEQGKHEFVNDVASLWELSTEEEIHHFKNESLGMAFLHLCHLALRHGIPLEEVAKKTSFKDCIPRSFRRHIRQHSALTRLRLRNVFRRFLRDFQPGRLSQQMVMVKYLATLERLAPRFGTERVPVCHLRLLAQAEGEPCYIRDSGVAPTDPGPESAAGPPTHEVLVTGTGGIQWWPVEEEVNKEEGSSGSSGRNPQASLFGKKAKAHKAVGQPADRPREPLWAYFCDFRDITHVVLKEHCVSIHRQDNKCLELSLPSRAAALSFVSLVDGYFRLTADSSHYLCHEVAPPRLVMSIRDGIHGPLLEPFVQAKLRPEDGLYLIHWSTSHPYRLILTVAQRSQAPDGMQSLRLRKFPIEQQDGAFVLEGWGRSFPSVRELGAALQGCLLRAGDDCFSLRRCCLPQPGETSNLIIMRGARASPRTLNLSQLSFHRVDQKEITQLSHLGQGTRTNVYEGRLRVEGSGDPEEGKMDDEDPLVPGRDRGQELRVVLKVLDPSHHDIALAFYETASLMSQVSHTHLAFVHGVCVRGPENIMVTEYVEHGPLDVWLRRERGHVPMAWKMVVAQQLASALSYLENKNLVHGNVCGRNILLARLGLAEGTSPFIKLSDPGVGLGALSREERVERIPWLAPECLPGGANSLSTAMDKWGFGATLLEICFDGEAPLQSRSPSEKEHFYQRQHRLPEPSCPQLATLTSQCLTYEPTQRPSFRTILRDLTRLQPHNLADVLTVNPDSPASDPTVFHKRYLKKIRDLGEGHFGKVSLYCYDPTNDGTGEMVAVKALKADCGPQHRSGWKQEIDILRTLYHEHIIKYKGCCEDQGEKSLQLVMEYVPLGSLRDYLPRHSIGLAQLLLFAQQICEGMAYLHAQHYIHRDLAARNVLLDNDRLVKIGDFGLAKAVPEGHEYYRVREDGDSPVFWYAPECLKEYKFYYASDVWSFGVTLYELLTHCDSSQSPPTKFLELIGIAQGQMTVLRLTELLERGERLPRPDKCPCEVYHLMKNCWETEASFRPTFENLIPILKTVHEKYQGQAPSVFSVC
T4 sequence (Q9UM73 19-1620): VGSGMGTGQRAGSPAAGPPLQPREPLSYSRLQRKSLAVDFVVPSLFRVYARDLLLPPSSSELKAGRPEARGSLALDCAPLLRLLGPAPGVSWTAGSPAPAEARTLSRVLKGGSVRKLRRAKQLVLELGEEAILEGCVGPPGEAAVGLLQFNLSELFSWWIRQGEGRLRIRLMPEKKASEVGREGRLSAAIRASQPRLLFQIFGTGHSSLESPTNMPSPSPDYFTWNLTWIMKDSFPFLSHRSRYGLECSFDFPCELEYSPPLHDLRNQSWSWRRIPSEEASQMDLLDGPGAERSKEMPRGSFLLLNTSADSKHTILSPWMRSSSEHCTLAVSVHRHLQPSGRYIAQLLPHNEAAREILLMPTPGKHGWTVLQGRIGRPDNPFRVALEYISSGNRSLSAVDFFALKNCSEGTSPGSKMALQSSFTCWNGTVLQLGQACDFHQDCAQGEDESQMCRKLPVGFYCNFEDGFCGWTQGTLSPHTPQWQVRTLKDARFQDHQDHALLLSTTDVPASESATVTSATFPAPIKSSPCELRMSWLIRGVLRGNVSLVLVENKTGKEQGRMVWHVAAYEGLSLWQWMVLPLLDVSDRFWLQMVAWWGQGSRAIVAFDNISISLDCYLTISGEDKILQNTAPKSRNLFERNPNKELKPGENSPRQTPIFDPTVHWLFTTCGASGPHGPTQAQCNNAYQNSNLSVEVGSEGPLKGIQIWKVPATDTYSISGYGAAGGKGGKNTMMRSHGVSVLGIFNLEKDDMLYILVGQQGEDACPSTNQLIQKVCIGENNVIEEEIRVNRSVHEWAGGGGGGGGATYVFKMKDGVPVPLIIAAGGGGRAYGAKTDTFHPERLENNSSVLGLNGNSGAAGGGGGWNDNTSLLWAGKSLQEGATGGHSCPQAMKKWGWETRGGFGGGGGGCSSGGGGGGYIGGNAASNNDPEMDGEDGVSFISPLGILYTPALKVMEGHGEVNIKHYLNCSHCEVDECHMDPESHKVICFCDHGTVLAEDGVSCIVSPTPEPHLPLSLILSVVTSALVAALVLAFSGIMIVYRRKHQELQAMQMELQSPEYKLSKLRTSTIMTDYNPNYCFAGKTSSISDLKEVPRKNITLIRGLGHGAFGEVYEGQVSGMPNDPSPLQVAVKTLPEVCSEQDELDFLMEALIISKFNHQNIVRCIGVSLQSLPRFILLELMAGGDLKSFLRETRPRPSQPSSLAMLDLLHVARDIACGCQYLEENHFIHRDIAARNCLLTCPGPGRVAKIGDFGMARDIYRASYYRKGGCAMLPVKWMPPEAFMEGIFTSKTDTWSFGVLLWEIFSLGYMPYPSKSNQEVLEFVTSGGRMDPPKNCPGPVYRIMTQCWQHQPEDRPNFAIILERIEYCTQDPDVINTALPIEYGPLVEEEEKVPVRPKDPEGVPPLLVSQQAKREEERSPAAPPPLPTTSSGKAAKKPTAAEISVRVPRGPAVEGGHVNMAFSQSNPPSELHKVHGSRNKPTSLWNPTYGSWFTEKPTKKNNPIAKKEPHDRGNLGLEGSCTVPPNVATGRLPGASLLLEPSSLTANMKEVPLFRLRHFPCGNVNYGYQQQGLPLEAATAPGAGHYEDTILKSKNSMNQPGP
T2 sequence (O60674 828-1132): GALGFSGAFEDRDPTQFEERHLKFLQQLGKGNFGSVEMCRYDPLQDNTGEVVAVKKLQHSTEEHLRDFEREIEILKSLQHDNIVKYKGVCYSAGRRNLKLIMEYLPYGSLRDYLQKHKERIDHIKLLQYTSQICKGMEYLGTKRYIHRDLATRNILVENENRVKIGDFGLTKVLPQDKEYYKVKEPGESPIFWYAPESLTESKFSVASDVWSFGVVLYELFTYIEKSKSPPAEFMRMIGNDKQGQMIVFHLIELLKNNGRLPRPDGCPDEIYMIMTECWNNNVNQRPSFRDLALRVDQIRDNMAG

| IC50 [1] | IC50 [2] | IC50 [3] | IC50 (TYK2) | ALK % of inhibition at a concentration of 500 nM or 1 mM [4] | ALK % of inhibition at a concentration of 500 nM or 1 mM ([4]; bis(trifluoroacetate)) | SMILES |
| --- | --- | --- | --- | --- | --- | --- |
| 2 nM | 7.2 nM | 30 nM | 8 nM | 46% | – | O=C(CC1CCN(C(=O)c2cnon2)CC1)Nc1ccc2cc1CCc1cncc(c1)Nc1ncc(Cl)c(n1)N2 [Example A138, N-[6-Chloro-2,4,8,18,22-pentaazatetracyclo[14.3.1.1(3,7).1(9,13)]docosa-1(20),3(22),4,6,9(21),10,12,16,18-nonaen-12-yl]-2-[1-(1,2,5-oxadiazol-3-ylcarbonyl)piperidin-4-yl]acetamide bis(trifluoroacetate)] |
| 1.1 nM | 7.6 nM | 178 nM | 3.4 nM | 27% | – | O=C(CC1CCN(C(=O)c2ncco2)CC1)Nc1ccc2cc1CCc1cncc(c1)Nc1ncc(Cl)c(n1)N2 [Example A139, N-[6-Chloro-2,4,8,18,22-pentaazatetracyclo[14.3.1.1(3,7).1(9,13)]docosa-1(20),3(22),4,6,9(21),10,12,16,18-nonaen-12-yl]-2-[1-(1,3-oxazol-2-ylcarbonyl)piperidin-4-yl]acetamide bis(trifluoroacetate)] |
| 38 nM | 46 nM | 117 nM | 68 nM | 18% | – | CC(C)N1CCC(CC(=O)Nc2ccc3cc2CCc2cncc(c2)Nc2ncc(Cl)c(n2)N3)CC1 [Example A140, N-[6-Chloro-2,4,8,18,22-pentaazatetracyclo[14.3.1.1(3,7).1(9,13)]docosa-1(20),3(22),4,6,9(21),10,12,16,18-nonaen-12-yl]-2-(1-isopropylpiperidin-4-yl)acetamide tris(trifluoroacetate)] |
| 3.5 nM | 12 nM | > 100 nM | 13 nM | 19% | – | N#Cc1ccccc1NC(=O)N1CCC(CC(=O)Nc2ccc3cc2CCc2cncc(c2)Nc2ncc(Cl)c(n2)N3)CC1 [Example A141, 4-(2-{[6-Chloro-2,4,8,18,22-pentaazatetracyclo[14.3.1.1(3,7).1(9,13)]docosa-1(20),3(22),4,6,9(21),10,12,16,18-nonaen-12-yl]amino}-2-oxoethyl)-N-(2-cyanophenyl)piperidine-1-carboxamide bis(trifluoroacetate)] |
| 2.4 nM | 4.8 nM | > 100 nM | 6.5 nM | 41% | – | N#Cc1cccc(NC(=O)N2CCC(CC(=O)Nc3ccc4cc3CCc3cncc(c3)Nc3ncc(Cl)c(n3)N4)CC2)c1 [Example A142, 4-(2-{[6-Chloro-2,4,8,18,22-pentaazatetracyclo[14.3.1.1(3,7).1(9,13)]docosa-1(20),3(22),4,6,9(21),10,12,16,18-nonaen-12-yl]amino}-2-oxoethyl)-N-(3-cyanophenyl)piperidine-1-carboxamide bis(trifluoroacetate)] |
| 2.2 nM | 1.8 nM | > 100 nM | 1.2 nM | 63% | – | N#Cc1ccc(NC(=O)N2CCC(CC(=O)Nc3ccc4cc3CCc3cncc(c3)Nc3ncc(Cl)c(n3)N4)CC2)cc1 [Example A143, 4-(2-{[6-Chloro-2,4,8,18,22-pentaazatetracyclo[14.3.1.1(3,7).1(9,13)]docosa-1(20),3(22),4,6,9(21),10,12,16,18-nonaen-12-yl]amino}-2-oxoethyl)-N-(4-cyanophenyl)piperidine-1-carboxamide bis(trifluoroacetate)] |
| 1.2 nM | 6.4 nM | > 100 nM | 11 nM | 35% | – | O=C(CC1CCN(C(=O)Nc2cccnc2)CC1)Nc1ccc2cc1CCc1cncc(c1)Nc1ncc(Cl)c(n1)N2 [Example A144, 4-(2-{[6-Chloro-2,4,8,18,22-pentaazatetracyclo[14.3.1.1(3,7).1(9,13)]docosa-1(20),3(22),4,6,9(21),10,12,16,18-nonaen-12-yl]amino}-2-oxoethyl)-N-pyridin-3-ylpiperidine-1-carboxamide bis(trifluoroacetate)] |
| 16 nM | 30 nM | > 100 nM | 43 nM | – | 21% | Cc1noc(C)c1NC(=O)N1CCC(CC(=O)Nc2ccc3cc2CCc2cncc(c2)Nc2ncc(Cl)c(n2)N3)CC1 [Example A145, 4-(2-{[6-Chloro-2,4,8,18,22-pentaazatetracyclo[14.3.1.1(3,7).1(9,13)]docosa-1(20),3(22),4,6,9(21),10,12,16,18-nonaen-12-yl]amino}-2-oxoethyl)-N-(3,5-dimethylisoxazol-4-yl)piperidine-1-carboxamide bis(trifluoroacetate)] |
| 0.9 nM | 3.6 nM | > 100 nM | 7.1 nM | 34% | – | O=C(CC1CCN(C(=O)Nc2ccccc2F)CC1)Nc1ccc2cc1CCc1cncc(c1)Nc1ncc(Cl)c(n1)N2 [Example A146, 4-(2-{[6-Chloro-2,4,8,18,22-pentaazatetracyclo[14.3.1.1(3,7).1(9,13)]docosa-1(20),3(22),4,6,9(21),10,12,16,18-nonaen-12-yl]amino}-2-oxoethyl)-N-(2-fluorophenyl)piperidine-1-carboxamide bis(trifluoroacetate)] |
| 0.3 nM | 1.9 nM | > 100 nM | 7.4 nM | 46% | – | O=C(CC1CCN(C(=O)Nc2cccc(F)c2)CC1)Nc1ccc2cc1CCc1cncc(c1)Nc1ncc(Cl)c(n1)N2 [Example A147, 4-(2-{[6-Chloro-2,4,8,18,22-pentaazatetracyclo[14.3.1.1(3,7).1(9,13)]docosa-1(20),3(22),4,6,9(21),10,12,16,18-nonaen-12-yl]amino}-2-oxoethyl)-N-(3-fluorophenyl)piperidine-1-carboxamide bis(trifluoroacetate)] |
| 0.2 nM | 1.5 nM | > 100 nM | 3.9 nM | 42% | – | O=C(CC1CCN(C(=O)Nc2ccc(F)cc2)CC1)Nc1ccc2cc1CCc1cncc(c1)Nc1ncc(Cl)c(n1)N2 [Example A148, 4-(2-{[6-Chloro-2,4,8,18,22-pentaazatetracyclo[14.3.1.1(3,7).1(9,13)]docosa-1(20),3(22),4,6,9(21),10,12,16,18-nonaen-12-yl]amino}-2-oxoethyl)-N-(4-fluorophenyl)piperidine-1-carboxamide bis(trifluoroacetate)] |
| 0.5 nM | 3.1 nM | > 100 nM | 6.9 nM | 35% | – | Cc1ccccc1NC(=O)N1CCC(CC(=O)Nc2ccc3cc2CCc2cncc(c2)Nc2ncc(Cl)c(n2)N3)CC1 [Example A149, 4-(2-{[6-Chloro-2,4,8,18,22-pentaazatetracyclo[14.3.1.1(3,7).1(9,13)]docosa-1(20),3(22),4,6,9(21),10,12,16,18-nonaen-12-yl]amino}-2-oxoethyl)-N-(2-methylphenyl)piperidine-1-carboxamide bis(trifluoroacetate)] |
| 0.3 nM | 1.1 nM | > 100 nM | 5.1 nM | 48% | – | Cc1cccc(NC(=O)N2CCC(CC(=O)Nc3ccc4cc3CCc3cncc(c3)Nc3ncc(Cl)c(n3)N4)CC2)c1 [Example A150, 4-(2-{[6-Chloro-2,4,8,18,22-pentaazatetracyclo[14.3.1.1(3,7).1(9,13)]docosa-1(20),3(22),4,6,9(21),10,12,16,18-nonaen-12-yl]amino}-2-oxoethyl)-N-(3-methylphenyl)piperidine-1-carboxamide bis(trifluoroacetate)] |
| 0.3 nM | 1.4 nM | > 100 nM | 3.8 nM | 45% | – | Cc1ccc(NC(=O)N2CCC(CC(=O)Nc3ccc4cc3CCc3cncc(c3)Nc3ncc(Cl)c(n3)N4)CC2)cc1 [Example A151, 4-(2-{[6-Chloro-2,4,8,18,22-pentaazatetracyclo[14.3.1.1(3,7).1(9,13)]docosa-1(20),3(22),4,6,9(21),10,12,16,18-nonaen-12-yl]amino}-2-oxoethyl)-N-(4-methylphenyl)piperidine-1-carboxamide bis(trifluoroacetate)] |
| 0.4 nM | 2.4 nM | > 100 nM | 2.4 nM | 37% | – | COc1ccccc1NC(=O)N1CCC(CC(=O)Nc2ccc3cc2CCc2cncc(c2)Nc2ncc(Cl)c(n2)N3)CC1 [Example A152, 4-(2-{[6-Chloro-2,4,8,18,22-pentaazatetracyclo[14.3.1.1(3,7).1(9,13)]docosa-1(20),3(22),4,6,9(21),10,12,16,18-nonaen-12-yl]amino}-2-oxoethyl)-N-(2-methoxyphenyl)piperidine-1-carboxamide bis(trifluoroacetate)] |
